# Assay: gradient 5% acetonitrile 3 min, to 50% in 2 min, to 85% in 15 min, held 3 min, 100 µL/min
# Settings: column: Zorbax Extend-C18 2.1 x 50 mm; eluents: water / acetonitrile, 0.1% formic acid
# Summary of the method: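 Data were gathered over 3 months by HPLC coupled to a quadrupole time-of-flight mass spectrometer, operated in positive and negative ionization mode. Mixtures of ~100 pure standards ran on a Zorbax Extend-C18 column (2.1 × 50 mm, 1.8 μm) at 100 μL/min, with water and acetonitrile each containing 0.1% formic acid and dead and dwell volumes of 40 μL and 900 μL. Retention time was read from adduct peaks picked by computer and checked manually.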
row,Compound,RP-LC retention time [s]
1,O=C(Nc1ccc(Cl)cc1)N1CCCC1c1nc(-c2ccccc2)no1 (stereo unspecified),1040
2,CC(=O)N(C1CCOCC1)C1CCN(C(=O)c2ccc(C)s2)CC1,673
3,COc1ccc(NC(=O)Cn2cnc(-c3ccc(F)cc3)cc2=O)c(OC)c1,754
4,Cc1ccccc1NC(=O)Cn1cnc2nc(N3CCC(C(=O)NC4CC4)CC3)sc2c1=O,644
5,O=C(NC1CCCc2ccccc21)c1cc2sccc2n1Cc1ccc(Cl)cc1 (stereo unspecified),1320
6,O=C(c1cccc(Cl)c1)N1CCN(C(=O)c2nnn3c2COC(c2ccc(F)cc2)C3)CC1 (stereo unspecified),913
7,Cc1ccc(-c2cc3c4nnc(CCC(=O)N5CCN(C6CCCCC6)CC5)n4ccn3n2)cc1C,682
8,COc1ccc2c(c1)Cc1sc(NC(=O)c3ccc(Br)cc3)nc1-2,1130
9,CCC(CO)NCc1ccc(-c2cccc(Cl)c2C)o1 (stereo unspecified),683
10,Cc1nc(-c2cccc(NC(=O)CCCn3cnc(-c4ccc(F)cc4)cc3=O)c2)cs1,768
11,COc1cccc(CNC(=O)Cn2nc3c4cccc(C)c4ncn3c2=O)c1OC,630
12,COC(=O)c1c(NCc2c(C)noc2C)c2ccccc2[nH]c1=O,661
13,Cc1sc(NC(=O)CC(C)C)nc1-c1ccc2c(c1)NC(=O)C(C)O2 (stereo unspecified),865
14,CC(C)c1cccc(NC(=O)C2CCCN(c3cn[nH]c(=O)c3)C2)c1 (stereo unspecified),692
15,COc1ccc2c(c1)C1(CCN(C(=O)C(C)C)C1)C(=O)N2 (stereo unspecified),646
16,O=C(NCCN1CCCC1)C1CCCN(c2ncnc3c2nc2n3CCCCC2)C1 (stereo unspecified),591
17,CCn1c(=O)c(N2CCCC(C(=O)N3CCN(c4cc(C)ccc4C)CC3)C2)nc2ccccc21 (stereo unspecified),1380
18,CCN(C(=O)Cn1ccc2c(=O)n(C)c(=O)n(C)c21)c1cccc(Cl)c1,747

row,Compound,RP-LC retention time [s]
1,CC(NC(=O)c1ccc(NC(=O)C2CC2)cc1N1CCCCCC1)c1ccccn1 (stereo unspecified),633
2,CC1CCN(C(=O)C2=NN(C(C)C)c3cc(Cl)ccc3S2(=O)=O)CC1,1020
3,Cn1nc(-c2ccc(NC(=O)c3cccc4ccccc34)cc2)ccc1=O,763
4,CCOc1ccc(/C=C2\NC(=S)NC2=O)cc1,840
5,Cc1[nH]c(C(=O)N2CCC(CC(=O)NCc3ccc4c(c3)OCO4)CC2)c(C)c1C(=O)OC(C)C,797
6,COc1ccc2[nH]c(=O)c(CCC(=O)NCc3ccc(OC)c(OC)c3)cc2c1,648
7,O=C(CC1CCCC1)N1CCC(N(Cc2cccnc2)C2CCOCC2)CC1,604
8,O=C(Nc1ccc2c(c1)OCCO2)C1CCN(c2cnc3nccnc3c2)CC1,666
9,Cn1c(=O)n([C@H]2CCCN(S(=O)(=O)Cc3ccccc3)C2)c2ncccc21,827
10,O=C(Cn1ccn2nc(-c3ccc(F)cc3)c(CO)c2c1=O)Nc1cc(F)cc(F)c1,880
11,O=S(=O)(Nc1ccc(Cn2cncn2)cc1)c1ccc(F)cc1F,714
12,CCNC(=O)C1CCN(C(=O)Nc2ccc(NC(=O)Nc3ccccc3)cc2)CC1,658
13,COc1ccc(CNC(=O)C(C)n2sc3ccccc3c2=O)cc1OC (stereo unspecified),848
14,CCc1nnc(-c2coc(S(=O)(=O)N3CCC(N4CCCCC4)CC3)c2)o1,607
15,COC[C@H]1NC(=O)CC[C@H]1C(=O)Nc1ccc2c(c1)OCCO2,632
16,COc1ccc(N2CCn3c(SCC(=O)Nc4nc5ccccc5s4)nnc32)cc1,742
17,COC(=O)c1ccccc1NC(=O)N1CCCn2nc(-c3cccn3C)cc21,958
18,COc1ccc(OC)c(NC(=O)N(C)Cc2nc3cc(C(=O)N(C)C)ccc3n2C)c1,605
